Measurements reported in the supplement of paper PMC10307832.

How the values were obtained:
Assay in all cases: relative viability (nuclei count vs DMSO), 5 days (fraction); higher = more cells survive
[1] = tested on: COR-L 105
How it was run: (§1)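 Each reported value is a median over duplicate plates. It expresses relative viability: treated-well nuclei count divided by vehicle-well nuclei count. Lung cancer cell lines in 1536-well plates were dosed by pin tool a day after seeding, alone with one drug or with a fixed anchor-drug dose plus five library-drug doses (not always all listed) in √10 steps, and nuclei were counted after 5 days.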

[2] = tested on: COR-L23
How it was run: as §1

[3] = tested on: EKVX
How it was run: as §1

[4] = tested on: HARA
How it was run: as §1

[5] = tested on: HOP-62
How it was run: as §1

[6] = tested on: NCI-H1355
How it was run: as §1

[7] = tested on: NCI-H1395
How it was run: as §1

[8] = tested on: NCI-H1734
How it was run: as §1

[9] = tested on: NCI-H1755
How it was run: as §1

[10] = tested on: NCI-H1793
How it was run: as §1

[11] = tested on: NCI-H1993
How it was run: as §1

[12] = tested on: NCI-H2009
How it was run: as §1

[13] = tested on: NCI-H2170
How it was run: as §1

[14] = tested on: NCI-H2228
How it was run: as §1

[15] = tested on: NCI-H2342
How it was run: as §1

[16] = tested on: NCI-H2347
How it was run: as §1

[17] = tested on: NCI-H322M
How it was run: as §1

[18] = tested on: NCI-H358
How it was run: as §1

[19] = tested on: NCI-H522
How it was run: as §1

[20] = tested on: NCI-H647
How it was run: as §1

[21] = tested on: NCI-H838
How it was run: as §1

[22] = tested on: PC-14
How it was run: as §1

[23] = tested on: SK-MES-1
How it was run: as §1

[24] = tested on: UMC-11
How it was run: as §1

`CC(C)Oc1cc(Nc2nc(N[C@@H](C)c3ccc(F)cn3)ncc2Cl)n[nH]1` [AZ23] + Cc1nc(Nc2ncc(C(=O)Nc3c(C)cccc3Cl)s2)cc(N2CCN(CCO)CC2)n1 [Dasatinib] (partner 0.075 µM) was tested, and the relative viability ([1]; first compound 0.01 µM) was 0.339, the relative viability ([1]; first compound 0.03162 µM) was 0.374 and the relative viability ([1]; first compound 0.3162 µM) was 0.341. The relative viability ([2]; first compound 0.01 µM) was 0.485, the relative viability ([2]; first compound 0.03162 µM) was 0.645 and the relative viability ([2]; first compound 0.3162 µM) was 0.504. The relative viability ([3]; first compound 0.01 µM) was 0.503, the relative viability ([3]; first compound 0.03162 µM) was 0.551 and the relative viability ([3]; first compound 0.3162 µM) was 0.48. It also gave a relative viability ([4]; first compound 0.03162 µM) of 0.37, a relative viability ([4]; first compound 0.3162 µM) of 0.217 and a relative viability ([5]; first compound 0.01 µM) of 0.702. For the same compound, the relative viability ([5]; first compound 0.03162 µM) was 0.684, the relative viability ([5]; first compound 0.3162 µM) was 0.631 and the relative viability ([6]; first compound 0.01 µM) was 0.793. For the same compound, the relative viability ([6]; first compound 0.03162 µM) was 0.833, the relative viability ([6]; first compound 0.3162 µM) was 0.633 and the relative viability ([7]; first compound 0.03162 µM) was 0.481. For the same compound, the relative viability ([7]; first compound 0.3162 µM) was 0.359, the relative viability ([8]; first compound 0.01 µM) was 0.445 and the relative viability ([8]; first compound 0.03162 µM) was 0.454. For the same compound, the relative viability ([8]; first compound 0.3162 µM) was 0.448, the relative viability ([9]; first compound 0.01 µM) was 0.456 and the relative viability ([9]; first compound 0.03162 µM) was 0.488. For the same compound, the relative viability ([9]; first compound 0.3162 µM) was 0.357, the relative viability ([10]; first compound 0.01 µM) was 0.375 and the relative viability ([10]; first compound 0.03162 µM) was 0.404. For the same compound, the relative viability ([10]; first compound 0.3162 µM) was 0.383, the relative viability ([11]; first compound 0.01 µM) was 0.501 and the relative viability ([11]; first compound 0.03162 µM) was 0.613. The relative viability ([11]; first compound 0.3162 µM) was 0.522, the relative viability ([12]; first compound 0.01 µM) was 0.278 and the relative viability ([12]; first compound 0.03162 µM) was 0.341. It also gave a relative viability ([12]; first compound 0.3162 µM) of 0.279, a relative viability ([13]; first compound 0.01 µM) of 0.498 and a relative viability ([13]; first compound 0.03162 µM) of 0.618. It also gave a relative viability ([13]; first compound 0.3162 µM) of 0.598, a relative viability ([14]; first compound 0.01 µM) of 0.571 and a relative viability ([14]; first compound 0.03162 µM) of 0.504. It also gave a relative viability ([14]; first compound 0.3162 µM) of 0.445, a relative viability ([15]; first compound 0.01 µM) of 0.299 and a relative viability ([15]; first compound 0.03162 µM) of 0.31. The relative viability ([15]; first compound 0.3162 µM) was 0.339, the relative viability ([16]; first compound 0.01 µM) was 0.235 and the relative viability ([16]; first compound 0.03162 µM) was 0.298. For the same compound, the relative viability ([16]; first compound 0.3162 µM) was 0.274, the relative viability ([17]; first compound 0.03162 µM) was 0.255 and the relative viability ([17]; first compound 0.3162 µM) was 0.256. It also gave a relative viability ([18]; first compound 0.01 µM) of 0.144, a relative viability ([18]; first compound 0.03162 µM) of 0.161 and a relative viability ([18]; first compound 0.3162 µM) of 0.123. For the same compound, the relative viability ([19]; first compound 0.01 µM) was 0.716, the relative viability ([19]; first compound 0.03162 µM) was 0.933 and the relative viability ([19]; first compound 0.3162 µM) was 1.02. For the same compound, the relative viability ([20]; first compound 0.01 µM) was 0.174, the relative viability ([20]; first compound 0.03162 µM) was 0.215 and the relative viability ([20]; first compound 0.3162 µM) was 0.17. For the same compound, the relative viability ([21]; first compound 0.01 µM) was 0.255, the relative viability ([21]; first compound 0.03162 µM) was 0.317 and the relative viability ([21]; first compound 0.3162 µM) was 0.293. The relative viability ([22]; first compound 0.03162 µM) was 0.273, the relative viability ([22]; first compound 0.3162 µM) was 0.246 and the relative viability ([23]; first compound 0.03162 µM) was 0.275. For the same compound, the relative viability ([23]; first compound 0.3162 µM) was 0.288, the relative viability ([24]; first compound 0.01 µM) was 0.593 and the relative viability ([24]; first compound 0.03162 µM) was 0.504. For the same compound, the relative viability ([24]; first compound 0.3162 µM) was 0.481.
